According to PubChem BioAssay (NCI):
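Protocol summary: plate cells (96-well), add compound at 5 concentrations, incubate 48 h, interpolate endpoints linearly. GI50 = concentration required for 50% inhibition of growth. Definition used: TGI = concentration required for complete inhibition of growth.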

Columns and labels:
Assay in all cases: NCI-60 cell line screen, 48 h
[1] = test system: RXF 393 renal
[2] = test system: M14 melanoma
[3] = test system: OVCAR-8 ovarian
[4] = test system: NCI-H23 lung
[5] = test system: HOP-92 NSCLC
[6] = test system: EKVX NSCLC
[7] = test system: LOX IMVI melanoma
[8] = test system: SK-OV-3 ovarian
[9] = test system: HCT-15 colon
[10] = test system: SNB-19 CNS

Row | SMILES | TGI [1] [µM] | TGI [2] [µM] | TGI [3] [µM] | TGI [4] [µM] | TGI [5] [µM] | TGI [6] [µM] | TGI [7] [µM] | TGI [8] [µM] | TGI [9] [µM] | TGI [10] [µM] | GI50 [1] [nM] | GI50 [3] [nM] | GI50 [4] [nM] | GI50 [5] [nM] | GI50 [6] [nM] | GI50 [7] [nM] | GI50 [8] [nM] | GI50 [9] [nM] | GI50 [10] [µM]
1 | BrC(=C(c1ccc(OC2CCCCO2)cc1)c1ccc(OC2CCCCO2)cc1)c1ccccc1 (configuration not stated) | > 100 | > 100 | > 100 | > 100 | > 100 | > 100 | > 100 | > 100 | > 100 | > 100 |  |  |  |  |  |  |  |  | 
2 | CC1=CCC([C@@](C)(O)CCCC(C)(C)N=C=S)CC1 (some centres not stated) | 29.6 | 30.8 | 32.7 | 38.5 | 33.1 | 32.5 | 29.6 | 32.9 | 34.2 | 31.1 |  |  |  |  |  |  |  |  | 
3 | O=C1NC2c3c(I)sc(I)c3C(O)C2O1 (configuration not stated) | > 100 | > 100 | > 100 | > 100 | > 100 | > 100 | > 100 | > 100 | > 100 | > 100 |  |  |  |  |  |  |  |  | 
4 | CCOC(=O)c1cccc(N=Nc2nc[nH]c2/C=C/C(=O)OC)c1 | > 100 | 49.6 | > 100 | > 100 | > 100 | > 100 | > 100 | > 100 | > 100 | > 100 |  |  |  |  |  |  |  |  | 
5 | NC(=O)c1c(NC(=O)c2ccccc2)sc2c1CCC(=O)C2 | 5.46 |  | > 100 | 5.83 | 4.99 | 11.5 | 19.5 | > 100 | 1.93 | > 100 | 1170 | 1330 | 627 | 1420 | 1820 | 1150 | 2910 | 375 | 3.29
6 | O=[N+]([O-])C(=C(Nc1ccccc1)Nc1ccccc1)C(Cl)=C(Cl)Cl | 31.8 | 36.1 | 48.5 | 30 | 33.9 | 33.1 | 25.1 | 68.5 | 32.3 | 32.9 |  |  |  |  |  |  |  |  | 
7 | CC1(C)[C@@H]2CC[C@@]1(C)CN(CCC[N+](C)(C)C)C2 | > 100 | > 100 | > 100 | > 100 | > 100 | > 100 | > 100 | > 100 | > 100 | > 100 |  |  |  |  |  |  |  |  | 
8 | O=C(O)[C@H]1CCCN1CP(=O)(O)CN1CCC[C@@H]1C(=O)O | > 100 | > 100 | > 100 | > 100 | > 100 | > 100 | > 100 | > 100 | > 100 | > 100 |  |  |  |  |  |  |  |  | 
9 | C[N+](C)([O-])CCOc1cc2c(c3ccccc13)-c1ccccc1C2=O | 33.2 |  | > 93.1 | 74.7 | > 68.5 | 64.7 | > 47.4 | > 100 | > 100 | > 55.1 |  |  |  |  |  |  |  |  | 
10 | NCCCN1c2ccccc2Sc2ccc(Cl)cc21 | > 10 | 3.21 | > 10 | > 10 | > 10 | > 10 | 7.31 | > 10 | > 10 | > 10 |  |  |  |  |  |  |  |  | 
